Laboratory results: patent US11690845B2, “Methods of administering elagolix” (priority 2020, dated 2023)

Experiments:
[1] = Drug interaction studies: pharmacokinetics of co-administered drug in the presence of elagolix; type: in vivo, human; details: for changes in exposures when co-administered with elagolix: elagolix 300 mg twice daily
Protocol: Drug interaction studies were performed with elagolix and other drugs likely to be co-administered and with drugs commonly used as probes for pharmacokinetic interactions. Tables 7 and 8 summarize the pharmacokinetic effects when elagolix was co-administered with these drugs.

clinical = details: human, in vivo
Protocol: Subjects: Twenty adult premenopausal female subjects were enrolled in the study.
Beginning on Day 3, subjects received elagolix 300 mg BID under fasting conditions every day until Day 10. […] Doses of elagolix were separated by approximately 12 hours.
Testing was performed for CYP2C19 variants including the *2 (rs4244285), *3 (rs4986893), *4 (rs28399504), *8 (rs41291556), *10 (rs6413438) and *12 (rs55640102) alleles.
Safety was evaluated during confinement and at each study visit through adverse event monitoring, vital signs measurements, physical examinations, and routine laboratory tests.

[2] = Drug interactions: effects of ORIAHNN on plasma exposure of other drugs; details: co-administration of ORIAHNN
CYP3A = assay: Substrate of / metabolism by CYP3A; type: in vitro ADME
[3] = Drug-drug interaction study: effect of elagolix on pharmacokinetics of CYP2B6 substrate bupropion and OH-bupropion; safety; details: for Tmax / Metabolite to Parent AUCinf Ratio / Metabolite to Parent AUCt Ratio / Metabolite to Parent Cmax Ratio: median; for Tmax: N = 24; for t1/2: harmonic mean; for AUCinf / AUCt / Cmax: mean
Protocol: Subjects: Twenty four (24) adult premenopausal women in generally good health participated in this study.
Elagolix 300 mg BID (as 300 mg immediate release tablets) was administered in the morning and evening on days 1 through 14 in period 2. […] No food was consumed for 2 hours prior to the evening doses of elagolix continuing through 2 hours after. The doses of elagolix were separated by approximately 12 hours.
Individual PK parameters (peak concentration [Cmax] and area under the concentration-time curve [AUC]) were estimated using noncompartmental methods.
Central value ratios (90% confidence intervals) for Cmax, AUC, and metabolite to parent ratios (MPRs) (day 11, period 2 vs. day 1, period 1) were calculated to assess the DDIs. Safety was evaluated through assessment of adverse events, vital signs, electrocardiogram, and clinical laboratory tests.
Adverse events (AEs) were monitored throughout the DDI study. Additional safety evaluations included monitoring of physical examinations, vital signs, electrocardiogram variables, and clinical laboratory values were assessed

[4] = Digoxin 0.5 mg single dose, elagolix 200 mg twice daily ×10 days, N 11
[5] = Bupropion + Elagolix (Day 11, Period 2)
[6] = Bupropion Alone (Day 1, Period 1)
[7] = single 150 mg bupropion, elagolix 300 mg twice daily for 10 preceding days, interval in brackets
[8] = Midazolam 2 mg single dose, elagolix 150 mg once daily ×13 days, N 11
[9] = Midazolam 2 mg single dose, elagolix 300 mg twice daily ×11 days, N 20
[10] = Rosuvastatin 20 mg once daily, elagolix 300 mg twice daily ×7 days, N 10

SMILES: CC(NC(C)(C)C)C(=O)c1cccc(Cl)c1.Cl (racemic) [bupropion, (±)-1-(3-chlorophenyl)-2-[(1,1-dimethylethyl)amino]-1-propanone hydrochloride]
- changes in exposures when co-administered with elagolix [1]: No clinically significant changes

SMILES: COc1ccc2nc([S+]([O-])Cc3ncc(CO)c(OC)c3C)[nH]c2c1 (stereo not shown) [5-hydroxyomeprazole]
- decrease in AUCinf with elagolix (clinical): 20-30%
- AUCinf (clinical; 40 mg): 1880 ng·h/mL
- AUCt (clinical; 40 mg): 1820 ng·h/mL
- Cmax (clinical; 40 mg): 491 ng/mL
- t1/2 (clinical; 40 mg): 1.57 h
- decrease in AUCinf with elagolix (clinical; 300 mg): ~25%
- decrease in Cmax with elagolix (clinical; 300 mg): approximately 30%

SMILES: C[C@H]1O[C@@H](O[C@H]2[C@@H](O)C[C@H](O[C@H]3[C@@H](O)C[C@H](O[C@H]4CC[C@@]5(C)[C@H](CC[C@@H]6[C@@H]5C[C@@H](O)[C@]5(C)[C@@H](C7=CC(=O)OC7)CC[C@]65O)C4)O[C@@H]3C)O[C@@H]2C)C[C@H](O)[C@@H]1O [digoxin]
- Ratio (90% CI) AUC, co-administration with elagolix vs medication alone [1, 4]: 1.26
- Ratio (90% CI) Cmax, co-administration with elagolix vs medication alone [1, 4]: 1.71
- Effect on Plasma Exposure of Concomitant Drug (AUC) [2]: ↑ digoxin

SMILES: C[C@]12CC[C@@H]3c4ccc(O)cc4CC[C@H]3[C@@H]1CC[C@@H]2O [estradiol]
- metabolism by CYP3A (CYP3A): metabolized partially

SMILES: OC(Cn1cncn1)(Cn1cncn1)c1ccc(F)cc1F [fluconazole]
- changes in exposures when co-administered with elagolix [1]: No clinically significant changes

SMILES: C[C@H]1NC(C)(C)CO[C@]1(O)c1cccc(Cl)c1 [hydroxybupropion]
- Tmax ([3]; Bupropion + Elagolix (Day 11, Period 2), elagolix 300 mg BID): 6.0 h
- t1/2 [3, 5]: 20.5 h
- AUCinf [3, 5]: 17600 ng·h/mL
- AUCt [3, 5]: 17000 ng·h/mL
- Cmax [3, 5]: 429 ng/mL
- Metabolite to Parent AUCinf Ratio [3, 5]: 15.9
- Metabolite to Parent AUCt Ratio [3, 5]: 15.9
- Metabolite to Parent Cmax Ratio [3, 5]: 3.92
- Tmax ([3]; Bupropion Alone (Day 1, Period 1), 150 mg single dose): 10.0 h
- t1/2 [3, 6]: 24.7 h
- AUCinf [3, 6]: 16700 ng·h/mL
- AUCt [3, 6]: 15700 ng·h/mL
- Cmax [3, 6]: 323 ng/mL
- Metabolite to Parent AUCinf Ratio [3, 6]: 15.7
- Metabolite to Parent AUCt Ratio [3, 6]: 15.4
- Metabolite to Parent Cmax Ratio [3, 6]: 3.61
- increase in Cmax upon co-administration with elagolix ([3]; elagolix 300 mg BID): 32%
- changes in OH-bupropion/bupropion ratios of Cmax and AUC upon co-administration with elagolix ([3]; elagolix 300 mg BID, minimal changes): ≤ 120%
- AUCinf ratio, co-administration of bupropion with elagolix vs bupropion alone (A/B) [3, 7]: about 1.063
- Cmax ratio, co-administration of bupropion with elagolix vs bupropion alone (A/B) [3, 7]: about 1.317

SMILES: Cc1ncc2n1-c1ccc(Cl)cc1C(c1ccccc1F)=NC2 [midazolam]
- Ratio (90% CI) AUC, co-administration with elagolix vs medication alone [1, 8]: 0.65
- Ratio (90% CI) Cmax, co-administration with elagolix vs medication alone [1, 8]: 0.81
- Ratio (90% CI) AUC, co-administration with elagolix vs medication alone [1, 9]: 0.46
- Ratio (90% CI) Cmax, co-administration with elagolix vs medication alone [1, 9]: 0.56
- Effect on Plasma Exposure of Concomitant Drug (AUC) [2]: ↓ midazolam

SMILES: C#C[C@]1(OC(C)=O)CC[C@H]2[C@@H]3CCC4=CC(=O)CC[C@@H]4[C@H]3CC[C@@]21C [norethindrone acetate]
- metabolism by CYP3A (CYP3A): metabolized partially

SMILES: COc1ccc2nc(S(=O)(=O)Cc3ncc(C)c(OC)c3C)[nH]c2c1 [omeprazole sulfone]
- M:P AUCinf Ratio, Relative Bioavailability Point Estimate (clinical; female): 1.246
- M:P AUCt Ratio, Relative Bioavailability Point Estimate (clinical; female): 1.497
- increase in exposures with elagolix (clinical; female): ~3 fold
- Cmax (clinical; female, 40 mg): 162 ng/mL
- M:P AUCinf Ratio, Central Value Reference (clinical; female, 40 mg): 0.825
- M:P AUCt Ratio, Central Value Reference (clinical; female, 40 mg): 0.679
- RAUCinf (metabolite-to-parent AUCinf ratio) (clinical; female, 40 mg): 0.85
- RAUCt (metabolite-to-parent AUCt ratio) (clinical; female, 40 mg): 0.76
- increase in AUCinf with elagolix (clinical; female, 300 mg): 2.5 fold
- increase in Cmax with elagolix (clinical; female, 300 mg): 2.7 fold
- increase in M:P AUCinf ratio with elagolix (clinical; female, 300 mg): 25%
- Cmax and AUCinf values upon co-administration with elagolix (direction of change) (clinical): increased

SMILES: COc1ccc2[nH]c([S+]([O-])Cc3ncc(C)c(OC)c3C)nc2c1 (stereo not shown) [omeprazole, 5-methoxy-2-[[(4-methoxy3,5-dimethyl-2-pyridinyl)methyl]sulfinyl]-1H-benzimidazole, reference compound]
- decrease in AUCinf with elagolix (clinical; female): 40%
- increase in AUCinf with elagolix (clinical; female, 300 mg): 1.8 fold
- increase in Cmax with elagolix (clinical; female, 300 mg): 1.9 fold
- increase in exposure (AUCinf) with elagolix (clinical; female, im): 2-2.5 fold
- Cmax and AUCinf values upon co-administration with elagolix (direction of change) (clinical): increased
- Effect on Plasma Exposure of Concomitant Drug (AUC) [2]: ↑ omeprazole

SMILES: CC(C)c1nc(N(C)S(C)(=O)=O)nc(-c2ccc(F)cc2)c1/C=C/[C@@H](O)C[C@@H](O)CC(=O)O [rosuvastatin]
- Ratio (90% CI) AUC, co-administration with elagolix vs medication alone [1, 10]: 0.60
- Ratio (90% CI) Cmax, co-administration with elagolix vs medication alone [1, 10]: 0.99
- Effect on Plasma Exposure of Concomitant Drug (AUC) [2]: ↓ rosuvastatin

SMILES: CN[C@H]1CC[C@@H](c2ccc(Cl)c(Cl)c2)c2ccccc21 [sertraline]
- changes in exposures when co-administered with elagolix [1]: No clinically significant changes
